# Data from the supplement of paper PMC13380429.
# ± gives the standard deviation of the averaged measurements.
# Columns and labels:
# Details in all cases: 72 h
# HepG2 [1] = assay: drug sensitivity score (DSS) for viability; higher = more toxic; extreme values may be limits of the assay
# Calu-3 [2] = assay: as above
# Vero E6 [3] = assay: as above
# U2OS [4] = assay: as above
# Caco-2 [5] = assay: as above
# HepG2 [6] = assay: cell viability relative to DMSO; higher = less toxic
# Calu-3 [7] = assay: as above
# Vero E6 [8] = assay: as above
# U2OS [9] = assay: as above
# Caco-2 [10] = assay: as above
# HepG2 [11] = assay: relative viability EC50 (midpoint between 100% and the lowest measured viability); higher = less toxic
# Calu-3 [12] = assay: as above
# Vero E6 [13] = assay: as above
# U2OS [14] = assay: as above
# Caco-2 [15] = assay: as above
Structure (SMILES),drug sensitivity score (HepG2 [1]),drug sensitivity score (Calu-3 [2]),drug sensitivity score (Vero E6 [3]),drug sensitivity score (U2OS [4]),drug sensitivity score (Caco-2 [5]),cell viability (HepG2 [6]; 1 nM) [%],cell viability (HepG2 [6]; 10 nM) [%],cell viability (HepG2 [6]; 100 nM) [%],cell viability (HepG2 [6]; 1000 nM) [%],cell viability (HepG2 [6]; 10000 nM) [%],cell viability (Calu-3 [7]; 1 nM) [%],cell viability (Calu-3 [7]; 10 nM) [%],cell viability (Calu-3 [7]; 100 nM) [%],cell viability (Calu-3 [7]; 1000 nM) [%],cell viability (Calu-3 [7]; 10000 nM) [%],cell viability (Vero E6 [8]; 1 nM) [%],cell viability (Vero E6 [8]; 10 nM) [%],cell viability (Vero E6 [8]; 100 nM) [%],cell viability (Vero E6 [8]; 1000 nM) [%],cell viability (Vero E6 [8]; 10000 nM) [%],cell viability (U2OS [9]; 1 nM) [%],cell viability (U2OS [9]; 10 nM) [%],cell viability (U2OS [9]; 100 nM) [%],cell viability (U2OS [9]; 1000 nM) [%],cell viability (U2OS [9]; 10000 nM) [%],cell viability (Caco-2 [10]; 1 nM) [%],cell viability (Caco-2 [10]; 10 nM) [%],cell viability (Caco-2 [10]; 100 nM) [%],cell viability (Caco-2 [10]; 1000 nM) [%],cell viability (Caco-2 [10]; 10000 nM) [%],relative viability EC50 (HepG2 [11]) [µM],relative viability EC50 (Calu-3 [12]) [µM],relative viability EC50 (Vero E6 [13]) [µM],relative viability EC50 (U2OS [14]) [µM],relative viability EC50 (Caco-2 [15]) [µM]
Nc1nccs1 [aminothiazole],0,0,0,0,0,104,100,94.7,97.2,97.4,102,105,100,109,91.3,105,106,98.2,93.4,95.4,102,98.6,94.2,99.8,97.1,102,94.8,97.8,98.9,100,> 10,> 10,> 10,> 10,> 10
O=C(O)c1cccc(-c2noc(-c3ccccc3F)n2)c1 [ataluren],0,0,0,0,0,101,107,105,97.2,90.9,98.5,89.7,104,94.2,99.6,103,102,106,106,95.7,96.6,99.4,95.7,101,93.5,97,101,98.6,111,94.3,> 10,> 10,> 10,> 10,> 10
Oc1ccc2ccccc2c1 [beta-naphthol],0,0,0,0,0.6,94,90.7,102,89.1,99.4,114,98.4,104,114,116,94.4,99.5,98.7,104,90.7,102,99.6,104,97.2,104,102,90.3,99.1,89.8,83.2,> 10,> 10,> 10,> 10,> 10
C[C@H]1C[C@H]2[C@@H]3CCC4=CC(=O)C=C[C@]4(C)[C@@]3(F)[C@@H](O)C[C@]2(C)[C@@]1(O)C(=O)CO [betamethasone],1.3 ± 1.7,0,0.1 ± 0.14,0,0.25 ± 0.35,101 ± 4.1,97 ± 4.6,99.4 ± 11,90.2 ± 15,89.7 ± 4.4,106 ± 9.1,107 ± 7.4,95.05 ± 0.49,102 ± 3.6,95 ± 3.5,97 ± 4.5,91.7 ± 5.5,94.5 ± 8.6,95.4 ± 4.1,92.1 ± 6.5,99.6 ± 3.8,101 ± 1.3,94.5 ± 2.9,97.5 ± 2.7,92.4 ± 1.4,101 ± 2.2,92.85 ± 0.49,84.5 ± 5.2,99.1 ± 5.8,92.9 ± 12,> 10,> 10,> 10,> 10,> 10
CC(C)(C)N1CCC(c2ccccc2)(c2ccccc2)CC1 [budipine],0,0,0,0,0.3,88.8,95.8,101,102,88.9,96.9,97.3,101,101,96.7,96.1,91.8,91.9,93.9,98.8,91.9,99,97.3,102,97.6,98.4,103,86.3,102,82.7,> 10,> 10,> 10,> 10,> 10
CCCCNc1cc(C(=O)O)cc(S(N)(=O)=O)c1Oc1ccccc1 [bumetanide],0,0,0,0,0,103,98.5,104,107,94.6,95,93.1,104,95.4,95.1,117,108,107,95.6,99,97.9,101,98.9,99.1,102,90.2,103,103,94.1,96.7,> 10,> 10,> 10,> 10,> 10
CC12CCC(CC1=O)C2(C)C (stereo not drawn) [camphor-(+)],0.15 ± 0.21,0,0,0,0,95.8 ± 3.6,104 ± 13,96.1 ± 0.42,98.2 ± 1.8,96.6 ± 14,86,101,102,112,112,96.9 ± 3.2,98.5 ± 2.7,99.2 ± 4.2,96.7 ± 2,101 ± 9.5,101 ± 2.5,101 ± 6,99.8 ± 0.42,101 ± 5.5,99.8 ± 3.1,95.2 ± 8.1,90.5 ± 0.99,99.2 ± 3.3,93.8 ± 7.3,99.3 ± 6.2,> 10,> 10,> 10,> 10,> 10
CCN(CC)CCN[C@@H](C(=O)OCCC(C)C)c1ccccc1 [camylofine-chlorhydrate],0,0,0,0,1,106,105,98.6,97.3,108,96.3,107,102,97.5,99,94.9,93,95.7,91.1,103,90.7,99.7,94.8,101,108,84.4,82,85.5,100,85.6,> 10,> 10,> 10,> 10,> 10
C[C@@H]1CC[C@H]2C(C)(C)[C@H]3C[C@@]12CC[C@@]3(C)O [cedrol],0,0,0,0,0,97.7,102,98,104,118,96.9,97.1,103,87.7,102,94.5,96.5,91.2,94.7,103,99.9,94.5,101,97.1,101,97.5,88.4,100,99.4,104,> 10,> 10,> 10,> 10,> 10
CCCCCCCCCCCCCCCCNc1ccc(C(=O)O)cc1 [cetaben],0,0,0,0,0,101,111,97.3,105,99.5,99.5,101,98.5,90.8,95.4,99.8,99.2,94.4,98.8,101,99.5,97.8,102,99.2,98.5,99.2,97.4,109,93.7,103,> 10,> 10,> 10,> 10,> 10
CC1OC2(CS1)CN1CCC2CC1 (stereo not given) [cevimeline],0,0,0,0,0,107,97,94.9,89.2,111,106,92.9,102,97.1,103,96.7,91.5,92.7,89.7,102,99.1,98.9,99.7,106,106,98.3,88.1,91.3,91,96.3,> 10,> 10,> 10,> 10,> 10
